Patent US12583858B2 (Genentech, Inc., priority 2015, dated 2026)

Target: T1, TDO2 (Homo sapiens, UniProt P48775)
T1 construct: decreased levels of NFK in SW48 cells (high TDO expressing cells)
Assay: TDO2 cell assay (NFK GreenScreen, SW48 cells)
Assay type: cell-based
Conditions: SW48 cells (high TDO expressing), 200 uM tryptophan, 24 hours; Table 3; read-out: TDO2 Cell Fluor EC50

T1 sequence (P48775 whole entry): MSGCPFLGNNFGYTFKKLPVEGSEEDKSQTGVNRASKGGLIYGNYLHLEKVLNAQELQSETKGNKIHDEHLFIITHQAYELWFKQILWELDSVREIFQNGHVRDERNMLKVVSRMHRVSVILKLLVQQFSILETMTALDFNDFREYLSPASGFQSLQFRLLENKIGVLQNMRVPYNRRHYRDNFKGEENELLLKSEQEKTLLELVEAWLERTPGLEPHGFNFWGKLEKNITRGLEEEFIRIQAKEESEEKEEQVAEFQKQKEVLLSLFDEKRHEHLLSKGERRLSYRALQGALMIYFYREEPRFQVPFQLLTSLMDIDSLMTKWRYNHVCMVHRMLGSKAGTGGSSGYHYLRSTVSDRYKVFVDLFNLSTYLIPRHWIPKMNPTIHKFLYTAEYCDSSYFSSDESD

Row | Compound | EC50
1 | CC(O)(c1ncc[nH]1)C1c2ccccc2-c2cncn21 (single isomer, unassigned) [Example 143b] | > 25 µM
2 | CC(O)(c1ncc[nH]1)C1c2ccccc2-c2cncn21 (single isomer, unassigned) [Example 143c] | 16 µM
3 | CC(O)(c1ncc[nH]1)C1c2ccccc2-c2cncn21 (single isomer, unassigned) [Example 143d] | > 25 µM
4 | OC1(C2c3ccccc3-c3cncn32)CCCOC1 (single isomer, unassigned) [Example 144a] | 1 µM
5 | OC1(C2c3ccccc3-c3cncn32)CCCOC1 (single isomer, unassigned) [Example 144b] | > 25 µM
6 | OC1(C2c3ccccc3-c3cncn32)CCCOC1 (single isomer, unassigned) [Example 144c] | 2.1 µM
7 | OC1(C2c3ccccc3-c3cncn32)CCCOC1 (single isomer, unassigned) [Example 144d] | > 25 µM
8 | N#CC1CCC(O)(C2c3ccccc3-c3cncn32)CC1 (single isomer, unassigned) [Example 145a] | 4.2 µM
9 | N#CC1CCC(O)(C2c3ccccc3-c3cncn32)CC1 (single isomer, unassigned) [Example 145b] | 1.1 µM
10 | N#CC1CCC(O)(C2c3ccccc3-c3cncn32)CC1 (single isomer, unassigned) [Example 145c] | 19 µM
11 | N#CC1CCC(O)(C2c3ccccc3-c3cncn32)CC1 (single isomer, unassigned) [Example 145d] | > 25 µM
12 | OC1c2nncn2CCC1C1c2ccccc2-c2cncn21 (single isomer, unassigned) [Example 146-1a] | > 25 µM
13 | OC1c2nncn2CCC1C1c2ccccc2-c2cncn21 (single isomer, unassigned) [Example 146-1b] | 7.4 µM
14 | O[C@@H]1c2nncn2CC[C@H]1[C@H]1c2ccccc2-c2cncn21 (single isomer, unassigned) [Example 146-1c] | > 25 µM
15 | OC1c2nncn2CCC1C1c2ccccc2-c2cncn21 (single isomer, unassigned) [Example 146-1d] | 12 µM
16 | OC1c2cnnn2CCC1C1c2ccccc2-c2cncn21 (single isomer, unassigned) [Example 146a] | 0.33 µM
17 | OC1c2cnnn2CCC1C1c2ccccc2-c2cncn21 (single isomer, unassigned) [Example 146b] | > 25 µM
18 | O[C@@H](C1CCCCC1)[C@@H]1c2ccccc2-c2cncn21 (single isomer, unassigned) [Example 148c] | 0.88 µM
19 | O[C@@H](C1CCCCC1)[C@@H]1c2ccccc2-c2cncn21 (single isomer, unassigned) [Example 148d] | > 25 µM
20 | NC(=O)c1nc2c(s1)CCC(C1c3ccccc3-c3cncn31)C2O (single isomer, unassigned) [Example 149a] | 0.19 µM
21 | NC(=O)c1nc2c(s1)CCC(C1c3ccccc3-c3cncn31)C2O (single isomer, unassigned) [Example 149c] | 0.15 µM
22 | NC(=O)c1nc2c(s1)CCC(C1c3ccccc3-c3cncn31)C2O (single isomer, unassigned) [Example 149d] | 9.6 µM
23 | NC(=O)c1nc2c(s1)CCC(C1c3ccccc3-c3cncn31)C2O (single isomer, unassigned) [Example 149e] | 1.4 µM

Row | Compound | EC50
24 | NC(=O)c1nc2c(s1)CCC(C1c3ccccc3-c3cncn31)C2O (single isomer, unassigned) [Example 149f] | > 25 µM
25 | NC(=O)c1nc2c(s1)CCC(C1c3ccccc3-c3cncn31)C2O (single isomer, unassigned) [Example 149g] | 24.2 µM
26 | NC(=O)c1nc2c(s1)CCC(C1c3ccccc3-c3cncn31)C2O (single isomer, unassigned) [Example 149h] | 24 µM
27 | OC1CC(CF)(CF)C1C1c2ccccc2-c2cncn21 (single isomer, unassigned) [Example 150b] | 2.1 µM
28 | OC1CC(CF)(CF)C1C1c2ccccc2-c2cncn21 (single isomer, unassigned) [Example 150d] | 18 µM
29 | OC1CC(CF)(CF)C1C1c2ccccc2-c2cncn21 (single isomer, unassigned) [Example 150e] | 0.053 µM
30 | OC1CC(CF)(CF)C1C1c2ccccc2-c2cncn21 (single isomer, unassigned) [Example 150f] | 11 µM
31 | O[C@@H]1c2c(F)cnn2CC[C@@H]1[C@@H]1c2ccccc2-c2cncn21 (single isomer, unassigned) [Example 151b] | > 25 µM
32 | OC1c2c(F)cnn2CCC1C1c2ccccc2-c2cncn21 (single isomer, unassigned) [Example 151c] | > 25 µM
33 | O[C@@H]1c2c(F)cnn2CC[C@H]1[C@H]1c2ccccc2-c2cncn21 (single isomer, unassigned) [Example 151d] | 0.13 µM
34 | OC(c1ccncc1)C1c2ccccc2-c2cncn21 (single isomer, unassigned) [Example 152a] | 14 µM
35 | OC(c1ccncc1)C1c2ccccc2-c2cncn21 (single isomer, unassigned) [Example 152b] | > 25 µM
36 | OC(c1ccncc1)C1c2ccccc2-c2cncn21 (single isomer, unassigned) [Example 152c] | > 25 µM
37 | OC(c1ccncc1)C1c2ccccc2-c2cncn21 (single isomer, unassigned) [Example 152d] | > 25 µM
38 | N#CC1(C(O)C2c3ccccc3-c3cncn32)CC1 (single isomer, unassigned) [Example 153a] | 0.62 µM
39 | N#CC1(C(O)C2c3ccccc3-c3cncn32)CC1 (single isomer, unassigned) [Example 153b] | 11 µM
40 | OC(C1c2ccccc2-c2cncn21)C1(F)CC1 (single isomer, unassigned) [Example 154a] | 0.13 µM
41 | OC(C1c2ccccc2-c2cncn21)C1(F)CC1 (single isomer, unassigned) [Example 154b] | > 25 µM
42 | OC(C1c2ccccc2-c2cncn21)C1(F)CC1 (single isomer, unassigned) [Example 154c] | 5.4 µM
43 | OC(C1c2ccccc2-c2cncn21)C1(F)CC1 (single isomer, unassigned) [Example 154d] | 13 µM
44 | CC(C)(C(N)=O)C(O)C1c2ccccc2-c2cncn21 (single isomer, unassigned) [Example 155b] | > 25 µM
45 | CC(C)(C(N)=O)C(O)C1c2ccccc2-c2cncn21 (single isomer, unassigned) [Example 155c] | 21 µM
46 | CC(C)(C(N)=O)C(O)C1c2ccccc2-c2cncn21 (single isomer, unassigned) [Example 155d] | > 25 µM

Row | Compound | EC50
47 | N#Cc1cnn2c1C(O)C(C1c3ccccc3-c3cncn31)CC2 (single isomer, unassigned) [Example 156a] | > 25 µM
48 | N#Cc1cnn2c1C(O)C(C1c3ccccc3-c3cncn31)CC2 (single isomer, unassigned) [Example 156b] | 0.24 µM
49 | N#Cc1cnn2c1[C@@H](O)[C@@H]([C@H]1c3ccccc3-c3cncn31)CC2 (single isomer, unassigned) [Example 156c] | 19 µM
50 | N#Cc1cnn2c1[C@@H](O)[C@@H]([C@H]1c3ccccc3-c3cncn31)CC2 (single isomer, unassigned) [Example 156d] | > 25 µM
51 | N#Cc1cnn2c1C(O)C(C1c3ccccc3-c3cncn31)CC2 (single isomer, unassigned) [Example 156e] | 0.25 µM
52 | N#Cc1cnn2c1[C@@H](O)[C@H]([C@H]1c3ccccc3-c3cncn31)CC2 (single isomer, unassigned) [Example 156f] | > 25 µM
53 | OC1c2[nH]ncc2CCC1C1c2ccccc2-c2cncn21 (single isomer, unassigned) [Example 157a] | 0.37 µM
54 | O[C@@H]1c2[nH]ncc2CC[C@H]1[C@@H]1c2ccccc2-c2cncn21 (single isomer, unassigned) [Example 157b] | 22 µM
55 | OC1c2[nH]ncc2CCC1C1c2ccccc2-c2cncn21 (single isomer, unassigned) [Example 157c] | 14 µM
56 | OC1c2[nH]ncc2CCC1C1c2ccccc2-c2cncn21 (single isomer, unassigned) [Example 157e] | 0.096 µM
57 | OC1c2[nH]ncc2CCC1C1c2ccccc2-c2cncn21 (single isomer, unassigned) [Example 157f] | > 25 µM
58 | OC1c2[nH]ncc2CCC1C1c2ccccc2-c2cncn21 (single isomer, unassigned) [Example 157h] | 0.76 µM
59 | Cc1cnn2c1C(O)C(C1c3ccccc3-c3cncn31)CC2 (single isomer, unassigned) [Example 159a] | 0.27 µM
60 | Cc1cnn2c1C(O)C(C1c3ccccc3-c3cncn31)CC2 (single isomer, unassigned) [Example 159b] | 14 µM
61 | Cc1cnn2c1C(O)C(C1c3ccccc3-c3cncn31)CC2 (single isomer, unassigned) [Example 159c] | 0.25 µM
62 | Cc1cnn2c1C(O)C(C1c3ccccc3-c3cncn31)CC2 (single isomer, unassigned) [Example 159d] | 3.7 µM
63 | O[C@@H]1c2c(Cl)cnn2CC[C@@H]1[C@H]1c2ccccc2-c2cncn21 (single isomer, unassigned) [Example 160c] | 23 µM
64 | O[C@@H]1c2c(Cl)cnn2CC[C@@H]1[C@H]1c2ccccc2-c2cncn21 (single isomer, unassigned) [Example 160d] | 6 µM
65 | Nc1cc2n(n1)CCC(C1c3ccccc3-c3cncn31)C2O (single isomer, unassigned) [Example 161c] | 1 µM
66 | Nc1cc2n(n1)CCC(C1c3ccccc3-c3cncn31)C2O (single isomer, unassigned) [Example 161e] | > 25 µM
67 | Nc1cc2n(n1)CCC(C1c3ccccc3-c3cncn31)C2O (single isomer, unassigned) [Example 161g] | > 25 µM
68 | Nc1cc2n(n1)CCC(C1c3ccccc3-c3cncn31)C2O (single isomer, unassigned) [Example 161h] | 18 µM
69 | OC1c2nonc2CCC1C1c2ccccc2-c2cncn21 (single isomer, unassigned) [Example 163a] | 0.1 µM
